Laboratory results: patent US5693488A, “Transmembrane tyrosine phosphatase, nucleic acids encoding the same, and methods of use thereof” (The Rockefeller University, priority 1994, dated 1997)

Assays:
ChPTPλ = assay: PTP assay of ChPTPλ immunoprecipitated with A299 from DT40 cells (release of 32Pi from tyrosine-phosphorylated substrate); type: biochemical, chicken; conditions: for ChPTPλ (% activity): buffer 20 mM Hepes (pH 7.4); for effect on ChPTPλ activity (in words) / effect on ChPTPλ activity: concentration not given (Table 1); for requirement for higher ChPTPλ activity in vitro (in words): chelator
Experimental: For immunoblot (Western) analysis, cells were lysed in 1% SDS containing protease inhibitor mix (1 mM phenylmethylsulfonyl fluoride/2 μg aprotinin per ml/1 μg pepstatin per ml) (Boehringer). […] For immunoprecipitation, cells were solubilized in 1% NP-40/PBS/protease inhibitor mix, then ChPTPλ was immunoprecipitated with pA299 (25).
(§1) Raytide (Oncogene Science) and bovine brain myelin basic protein (Sigma) (20 μg each) were phosphorylated on tyrosines by v-Src (34 pg), purified from a baculovirus expression system (35a), in 50 μl containing 20 mM Tris-HCl, pH 7.2/5 mM MnCl2 /50 μCi [γ-^32 P]ATP at 30° C. for 3 h. Casein and histone 2B (Sigma) were phosphorylated on serines and threonines by the catalytic subunit of calf heart cAMP-dependent protein kinase (1 U, Sigma) in 50 μl including 25 mM Hepes, pH 7.4/10 mM MgCl2 /10 mM DTT/50 μCi [γ-^32 P]ATP. All reactions were terminated by TCA-precipitationand resuspended in Tris-HCl (pH 8.0) as previously described (5).
(§2) […] When bacterial extract was used, assay was done in 50 μl of PTP buffer. After incubating at 30° C. for 30 min, the reactions were stopped, and the released ^32 Pi was measured as previously described (5).

[1] = molecular target: T1, pKPTPλ, truncated ChPTPλ containing the intracellular domain (Gallus gallus, UniProt Q91976); assay: PTP assay of bacterial extract expressing pKPTPλ; type: biochemical, chicken
T1 construct: HindIII/EcoRI fragment in pKKUC12, E. coli DHB4 extract
Experimental: A 2 kb-cDNA fragment encoding the entire intracellular domain of ChPTPλ was excised by HindIII and EcoRI (starting from leucine 520, FIG. 2A-2C) and ligated to the expression vector pKKUC12. The recombinant,pkPTPλ, was transformed into E. coli DHB4 that lacks alkaline phosphatase (35). After induction by 0.4 mM IPTG for 2 h, bacterial extracts were prepared (5) and 5 μl samples were used for PTP assays. The extract of DHB4 containing the vector only was used as a negative control.
as §1, §2

[2] = 10 mM, buffer 20 mM Hepes (pH 7.4), 10 mM DTT, 5 mM EDTA

T1 sequence (Q91976 541-1237): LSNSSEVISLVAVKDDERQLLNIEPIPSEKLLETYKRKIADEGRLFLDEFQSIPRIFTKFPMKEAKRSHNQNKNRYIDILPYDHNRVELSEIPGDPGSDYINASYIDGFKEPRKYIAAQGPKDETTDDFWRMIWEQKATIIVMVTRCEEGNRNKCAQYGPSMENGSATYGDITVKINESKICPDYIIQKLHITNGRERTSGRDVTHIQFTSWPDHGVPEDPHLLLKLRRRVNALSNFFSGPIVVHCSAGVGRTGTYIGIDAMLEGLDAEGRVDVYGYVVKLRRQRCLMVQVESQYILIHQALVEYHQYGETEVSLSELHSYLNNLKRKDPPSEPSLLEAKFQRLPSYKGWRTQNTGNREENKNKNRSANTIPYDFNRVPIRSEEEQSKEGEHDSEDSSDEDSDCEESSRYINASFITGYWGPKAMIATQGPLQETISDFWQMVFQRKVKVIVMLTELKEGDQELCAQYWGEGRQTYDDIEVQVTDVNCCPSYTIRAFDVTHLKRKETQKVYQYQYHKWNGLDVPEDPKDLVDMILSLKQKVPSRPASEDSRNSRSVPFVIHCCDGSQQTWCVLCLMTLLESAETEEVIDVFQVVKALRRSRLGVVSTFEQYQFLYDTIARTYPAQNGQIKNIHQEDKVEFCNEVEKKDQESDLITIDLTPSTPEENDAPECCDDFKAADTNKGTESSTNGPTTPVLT

`[Ca+2].[Cl-].[Cl-]` [CaCl2] was tested, and the “ChPTPλ (% activity)” value (ChPTPλ; 10 mM, 10 mM DTT, 5 mM EDTA) was 100%, the “effect on ChPTPλ activity (in words)” value (ChPTPλ) was “no effect at all” and the “pKPTPλ (% activity)” value [1, 2] was 90%.
With `O[C@@H](CS)[C@@H](O)CS` [DTT] the “ChPTPλ (% activity)” value (ChPTPλ; 10 nM) was 65%, the “ChPTPλ (% activity)” value (ChPTPλ; 1 mM) was 39% and the “requirement for ChPTPλ activity (in words)” value (ChPTPλ; 10 mM, reducing reagent) was “required for ChPTPλ activity”. For the same compound, the “pKPTPλ (% activity)” value ([1]; 10 nM, buffer 20 mM Hepes (pH 7.4)) was 80%.
In the case of `O=C(O)CN(CCN(CC(=O)O)CC(=O)O)CC(=O)O` [EDTA], the “ChPTPλ (% activity)” value (ChPTPλ; 5 nM, 10 mM DTT) is reported as 100%, the “requirement for higher ChPTPλ activity in vitro (in words)” value (ChPTPλ) is reported as “needed for ChPTPλ to reach a higher activity” and the activity at 0.005 µM ([1]; pH 7.4, read-out: pKPTPλ (% activity)) is reported as 100%.
In the case of `O=C(O)CN(CCOCCOCCN(CC(=O)O)CC(=O)O)CC(=O)O` [EGTA], the “ChPTPλ (% activity)” value (ChPTPλ; 5 mM, 10 mM DTT) is reported as 100%, the “requirement for higher ChPTPλ activity in vitro (in words)” value (ChPTPλ) is reported as “needed for ChPTPλ to reach a higher activity” and the activity at 5000 µM ([1]; 5 mM, buffer 20 mM Hepes (pH 7.4), 10 mM DTT) is reported as 100%.
For `O=C(O)CI` [Iodoacetate], the “inhibition of ChPTPλ” value (ChPTPλ; 1 mM) was > 70% and the “ChPTPλ (% activity)” value (ChPTPλ; 1 mM, 10 mM DTT, 5 mM EDTA) was 29%.
For `[Cl-].[Cl-].[Mg+2]` [MgCl2], the “ChPTPλ (% activity)” value (ChPTPλ; 10 mM, 10 mM DTT, 5 mM EDTA) was 80%, the “effect on ChPTPλ activity” value (ChPTPλ) was < 30% and the “pKPTPλ (% activity)” value [1, 2] was 80%.
For `[Cl][Mn][Cl]` [MnCl2], the “ChPTPλ (% activity)” value (ChPTPλ; 10 mM, 10 mM DTT, 5 mM EDTA) was 87%, the “effect on ChPTPλ activity” value (ChPTPλ) was < 30% and the “pKPTPλ (% activity)” value [1, 2] was 51%. The “inhibitory influence on pKPTPλ activity” value ([1]; same assaying conditions (Table 1)) was 49%.
For `[Na+].[Na+].[O]=[Mo](=[O])([O-])[O-]` [Na2 MoO4], the “inhibition of ChPTPλ” value (ChPTPλ; 0.1 mM) was > 70%, the “ChPTPλ (% activity)” value (ChPTPλ; 0.1 mM, 10 mM DTT, 5 mM EDTA) was 24% and the “pKPTPλ (% activity)” value ([1]; 0.1 mM, buffer 20 mM Hepes (pH 7.4), 10 mM DTT, 5 mM EDTA) was 11%.
With `[Na+].[Na+].[Na+].[O]=[V]([O-])([O-])[O-]` [Na3 VO4] the “ChPTPλ (% activity)” value (ChPTPλ; 0.1 mM, 10 mM DTT, 5 mM EDTA) was 78%, the “inhibition of ChPTPλ” value (ChPTPλ; 1 mM) was > 70% and the “ChPTPλ (% activity)” value (ChPTPλ; 1 mM, 10 mM DTT, 5 mM EDTA) was 4%. For the same compound, the “pKPTPλ (% activity)” value ([1]; 1 mM, buffer 20 mM Hepes (pH 7.4), 10 mM DTT, 5 mM EDTA) was 2%.
`[Cl-].[Na+]` [NaCl] was tested, and the “ChPTPλ (% activity)” value (ChPTPλ; 200 mM, 10 mM DTT, 5 mM EDTA) was 100% and the “effect on ChPTPλ activity (in words)” value (ChPTPλ) was “no effect at all”.
For `[Cl-].[Cl-].[Zn+2]` [ZnCl2], the “inhibition of ChPTPλ” value (ChPTPλ; 10 mM) was > 70%, the “ChPTPλ (% activity)” value (ChPTPλ; 10 mM, 10 mM DTT, 5 mM EDTA) was 12% and the “pKPTPλ (% activity)” value [1, 2] was 1%.
In the case of NaPO4, the “ChPTPλ (% activity)” value (ChPTPλ; 10 mM, 10 mM DTT, 5 mM EDTA) is reported as 70%, the “effect on ChPTPλ activity” value (ChPTPλ) is reported as < 30% and the “pKPTPλ (% activity)” value [1, 2] is reported as 95%.
